# Experimental data: the kinase profiling compilation of Christmann-Franck et al. (2016)
# What was measured:
# Assay in all cases: KINOMEscan competition binding
# Conditions in all cases: compound 10.0 µM
# RPS6KA2 KD2 (human) = RPS6KA2 KD2 (human) (UniProt Q15349)
# [1] = system: EGFR (human), P00533 [747-751 del / S ins]
# STK4 (human) = STK4 (human) (UniProt Q13043)
# MYLK (human) = MYLK (human) (UniProt Q15746)
# DAPK2 (human) = DAPK2 (human) (UniProt Q9UIK4)
# INSR (human) = INSR (human) (UniProt P06213)
# STK33 (human) = STK33 (human) (UniProt Q9BYT3)
# CSNK1E (human) = CSNK1E (human) (UniProt P49674)
# PTK2 (human) = PTK2 (human) (UniProt Q05397)
# GAK (human) = GAK (human) (UniProt O14976)
# [2] = system: EGFR (human), P00533 [G719C; 746-750 del]
# FER (human) = FER (human) (UniProt P16591)
# ALK (human) = ALK (human) (UniProt Q9UM73)
# [3] = system: EGFR (human), P00533 [752-759 del]
# PRKD1 (human) = PRKD1 (human) (UniProt Q15139)
# ROS1 (human) = ROS1 (human) (UniProt P08922)
# [4] = system: EGFR (human), P00533 [P753S; 747-752 del]
# TTK (human) = TTK (human) (UniProt P33981)
# PLK1 (human) = PLK1 (human) (UniProt P53350)
# AKT3 (human) = AKT3 (human) (UniProt Q9Y243)
# PTK2B (human) = PTK2B (human) (UniProt Q14289)
# RPS6KA1 KD2 (human) = RPS6KA1 KD2 (human) (UniProt Q15418)
# TNK1 (human) = TNK1 (human) (UniProt Q13470)
# DMPK (human) = DMPK (human) (UniProt Q09013)
# ULK2 (human) = ULK2 (human) (UniProt Q8IYT8)
# DCLK1 (human) = DCLK1 (human) (UniProt O15075)
# DAPK3 (human) = DAPK3 (human) (UniProt O43293)
# [5] = system: EGFR (human), P00533 [A750P; 747-749 del]
# INSRR (human) = INSRR (human) (UniProt P14616)
# [6] = system: EGFR (human), P00533 [L858R]
# DCLK2 (human) = DCLK2 (human) (UniProt Q8N568)
# [7] = system: EGFR (human), P00533 [G719S]
# EGFR (human) = EGFR (human) (UniProt P00533)
# PLK4 (human) = PLK4 (human) (UniProt O00444)
# PLK3 (human) = PLK3 (human) (UniProt Q9H4B4)
# RPS6KA6 KD2 (human) = RPS6KA6 KD2 (human) (UniProt Q9UK32)
# RPS6KA6 KD2 (human), sequence (Q9UK32 whole entry, looked up): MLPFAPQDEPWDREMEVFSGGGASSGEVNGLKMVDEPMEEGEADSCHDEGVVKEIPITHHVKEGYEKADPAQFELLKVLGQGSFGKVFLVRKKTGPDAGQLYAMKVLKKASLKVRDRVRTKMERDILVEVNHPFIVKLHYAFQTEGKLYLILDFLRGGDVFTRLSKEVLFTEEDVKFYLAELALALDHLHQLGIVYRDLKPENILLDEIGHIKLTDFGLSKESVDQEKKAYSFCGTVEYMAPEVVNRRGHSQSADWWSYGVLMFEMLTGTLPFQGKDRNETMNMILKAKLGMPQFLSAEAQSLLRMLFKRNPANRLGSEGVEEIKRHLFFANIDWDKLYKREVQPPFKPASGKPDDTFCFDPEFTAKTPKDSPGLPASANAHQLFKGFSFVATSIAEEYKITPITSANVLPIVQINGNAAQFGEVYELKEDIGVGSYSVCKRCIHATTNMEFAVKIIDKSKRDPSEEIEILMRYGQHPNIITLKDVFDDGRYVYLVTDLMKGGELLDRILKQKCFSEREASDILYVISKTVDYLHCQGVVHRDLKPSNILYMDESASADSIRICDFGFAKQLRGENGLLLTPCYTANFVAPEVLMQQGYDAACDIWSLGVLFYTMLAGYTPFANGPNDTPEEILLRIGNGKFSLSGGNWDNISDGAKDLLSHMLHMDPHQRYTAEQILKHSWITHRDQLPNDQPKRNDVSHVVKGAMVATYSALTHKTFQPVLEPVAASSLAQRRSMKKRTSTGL
# DCLK2 (human), sequence (Q8N568 whole entry, looked up): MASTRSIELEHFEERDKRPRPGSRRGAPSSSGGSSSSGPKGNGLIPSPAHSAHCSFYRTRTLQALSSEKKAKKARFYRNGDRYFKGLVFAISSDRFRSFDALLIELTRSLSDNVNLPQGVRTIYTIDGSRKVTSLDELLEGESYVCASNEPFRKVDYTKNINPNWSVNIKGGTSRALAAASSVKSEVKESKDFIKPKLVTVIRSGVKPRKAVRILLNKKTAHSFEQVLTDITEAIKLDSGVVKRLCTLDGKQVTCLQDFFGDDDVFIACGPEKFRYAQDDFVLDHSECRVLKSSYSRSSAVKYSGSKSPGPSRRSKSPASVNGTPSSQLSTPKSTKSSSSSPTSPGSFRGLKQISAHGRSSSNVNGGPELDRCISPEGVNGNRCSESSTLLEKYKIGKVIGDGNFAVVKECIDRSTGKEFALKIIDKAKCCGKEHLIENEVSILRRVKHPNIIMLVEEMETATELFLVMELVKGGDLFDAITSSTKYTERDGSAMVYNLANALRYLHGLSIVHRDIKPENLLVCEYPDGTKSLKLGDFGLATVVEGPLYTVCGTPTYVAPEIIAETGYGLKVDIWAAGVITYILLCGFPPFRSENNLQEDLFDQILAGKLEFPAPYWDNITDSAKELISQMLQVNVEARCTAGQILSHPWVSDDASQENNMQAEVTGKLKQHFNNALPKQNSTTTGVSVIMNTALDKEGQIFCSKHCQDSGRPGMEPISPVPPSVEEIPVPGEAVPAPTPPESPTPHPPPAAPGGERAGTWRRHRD
# DCLK1 (human), sequence (O15075 whole entry, looked up): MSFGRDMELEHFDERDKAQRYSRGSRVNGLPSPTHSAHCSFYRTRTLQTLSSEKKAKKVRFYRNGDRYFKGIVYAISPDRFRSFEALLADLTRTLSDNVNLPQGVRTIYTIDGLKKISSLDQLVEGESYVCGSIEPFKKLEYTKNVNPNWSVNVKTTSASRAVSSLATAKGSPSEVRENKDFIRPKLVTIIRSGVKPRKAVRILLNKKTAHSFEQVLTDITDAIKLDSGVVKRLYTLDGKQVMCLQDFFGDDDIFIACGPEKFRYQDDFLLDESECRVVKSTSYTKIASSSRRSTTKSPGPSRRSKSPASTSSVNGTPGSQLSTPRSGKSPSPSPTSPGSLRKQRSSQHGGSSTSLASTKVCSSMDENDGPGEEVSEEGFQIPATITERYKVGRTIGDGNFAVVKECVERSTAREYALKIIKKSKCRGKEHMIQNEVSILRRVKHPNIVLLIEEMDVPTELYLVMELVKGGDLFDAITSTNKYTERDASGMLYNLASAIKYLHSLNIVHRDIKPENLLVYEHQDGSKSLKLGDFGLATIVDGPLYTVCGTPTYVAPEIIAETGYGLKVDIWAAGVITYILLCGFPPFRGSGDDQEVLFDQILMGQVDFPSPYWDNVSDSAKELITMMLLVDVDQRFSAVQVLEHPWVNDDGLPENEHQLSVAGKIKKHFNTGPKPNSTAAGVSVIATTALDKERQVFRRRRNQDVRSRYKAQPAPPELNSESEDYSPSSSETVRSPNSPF
# DAPK2 (human), sequence (Q9UIK4 whole entry, looked up): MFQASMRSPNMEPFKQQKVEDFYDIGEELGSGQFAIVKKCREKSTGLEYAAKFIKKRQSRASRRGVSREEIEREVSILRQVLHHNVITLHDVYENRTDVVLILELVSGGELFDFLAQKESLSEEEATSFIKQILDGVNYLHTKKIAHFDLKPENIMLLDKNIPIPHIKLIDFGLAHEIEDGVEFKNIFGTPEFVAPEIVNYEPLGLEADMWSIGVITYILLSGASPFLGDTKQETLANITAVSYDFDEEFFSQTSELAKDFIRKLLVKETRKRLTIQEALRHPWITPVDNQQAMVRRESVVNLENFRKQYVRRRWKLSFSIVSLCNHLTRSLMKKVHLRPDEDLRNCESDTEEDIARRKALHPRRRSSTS
# PLK3 (human), sequence (Q9H4B4 whole entry, looked up): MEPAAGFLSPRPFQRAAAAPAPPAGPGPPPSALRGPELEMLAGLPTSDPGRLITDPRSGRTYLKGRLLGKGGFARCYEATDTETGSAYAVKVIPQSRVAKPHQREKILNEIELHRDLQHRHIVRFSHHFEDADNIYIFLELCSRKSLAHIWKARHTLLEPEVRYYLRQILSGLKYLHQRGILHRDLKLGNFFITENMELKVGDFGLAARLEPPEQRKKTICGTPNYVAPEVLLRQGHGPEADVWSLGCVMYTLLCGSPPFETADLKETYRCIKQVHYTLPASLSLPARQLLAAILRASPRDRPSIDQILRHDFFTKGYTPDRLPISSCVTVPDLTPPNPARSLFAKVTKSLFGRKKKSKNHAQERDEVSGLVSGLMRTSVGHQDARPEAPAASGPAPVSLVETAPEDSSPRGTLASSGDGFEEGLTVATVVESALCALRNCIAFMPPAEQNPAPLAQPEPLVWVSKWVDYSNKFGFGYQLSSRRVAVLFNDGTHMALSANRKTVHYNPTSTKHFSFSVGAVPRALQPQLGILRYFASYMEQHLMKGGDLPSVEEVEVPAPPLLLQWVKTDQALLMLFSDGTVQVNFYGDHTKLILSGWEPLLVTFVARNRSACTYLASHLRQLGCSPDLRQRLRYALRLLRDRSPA
# PTK2 (human), sequence (Q05397 whole entry, looked up): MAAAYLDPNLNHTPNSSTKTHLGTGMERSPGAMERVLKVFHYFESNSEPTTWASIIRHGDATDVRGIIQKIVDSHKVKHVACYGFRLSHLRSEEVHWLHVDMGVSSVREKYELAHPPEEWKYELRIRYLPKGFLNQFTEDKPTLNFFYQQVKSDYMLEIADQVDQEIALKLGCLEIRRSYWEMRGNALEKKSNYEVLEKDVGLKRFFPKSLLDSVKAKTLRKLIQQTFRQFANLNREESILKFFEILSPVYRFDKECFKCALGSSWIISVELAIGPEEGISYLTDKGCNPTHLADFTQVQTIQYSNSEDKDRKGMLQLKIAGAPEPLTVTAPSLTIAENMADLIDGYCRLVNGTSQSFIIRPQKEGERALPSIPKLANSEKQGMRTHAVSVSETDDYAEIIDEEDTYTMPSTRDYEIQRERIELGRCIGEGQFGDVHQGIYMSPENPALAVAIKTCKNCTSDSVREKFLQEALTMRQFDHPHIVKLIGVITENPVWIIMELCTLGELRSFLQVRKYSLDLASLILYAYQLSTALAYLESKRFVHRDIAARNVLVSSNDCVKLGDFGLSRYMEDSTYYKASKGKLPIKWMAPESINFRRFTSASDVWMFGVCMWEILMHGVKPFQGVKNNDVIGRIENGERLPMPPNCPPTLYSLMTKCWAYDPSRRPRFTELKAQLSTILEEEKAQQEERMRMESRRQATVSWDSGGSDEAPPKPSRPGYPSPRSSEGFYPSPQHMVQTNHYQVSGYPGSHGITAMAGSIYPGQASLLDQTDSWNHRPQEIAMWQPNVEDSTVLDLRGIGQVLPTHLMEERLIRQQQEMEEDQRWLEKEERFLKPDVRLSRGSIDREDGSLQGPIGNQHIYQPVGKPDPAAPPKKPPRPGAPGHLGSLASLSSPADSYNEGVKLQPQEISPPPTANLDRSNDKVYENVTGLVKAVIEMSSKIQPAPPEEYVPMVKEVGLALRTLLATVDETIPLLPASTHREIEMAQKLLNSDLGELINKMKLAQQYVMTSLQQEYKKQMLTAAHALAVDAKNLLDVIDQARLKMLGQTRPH
# RPS6KA1 KD2 (human), sequence (Q15418 whole entry, looked up): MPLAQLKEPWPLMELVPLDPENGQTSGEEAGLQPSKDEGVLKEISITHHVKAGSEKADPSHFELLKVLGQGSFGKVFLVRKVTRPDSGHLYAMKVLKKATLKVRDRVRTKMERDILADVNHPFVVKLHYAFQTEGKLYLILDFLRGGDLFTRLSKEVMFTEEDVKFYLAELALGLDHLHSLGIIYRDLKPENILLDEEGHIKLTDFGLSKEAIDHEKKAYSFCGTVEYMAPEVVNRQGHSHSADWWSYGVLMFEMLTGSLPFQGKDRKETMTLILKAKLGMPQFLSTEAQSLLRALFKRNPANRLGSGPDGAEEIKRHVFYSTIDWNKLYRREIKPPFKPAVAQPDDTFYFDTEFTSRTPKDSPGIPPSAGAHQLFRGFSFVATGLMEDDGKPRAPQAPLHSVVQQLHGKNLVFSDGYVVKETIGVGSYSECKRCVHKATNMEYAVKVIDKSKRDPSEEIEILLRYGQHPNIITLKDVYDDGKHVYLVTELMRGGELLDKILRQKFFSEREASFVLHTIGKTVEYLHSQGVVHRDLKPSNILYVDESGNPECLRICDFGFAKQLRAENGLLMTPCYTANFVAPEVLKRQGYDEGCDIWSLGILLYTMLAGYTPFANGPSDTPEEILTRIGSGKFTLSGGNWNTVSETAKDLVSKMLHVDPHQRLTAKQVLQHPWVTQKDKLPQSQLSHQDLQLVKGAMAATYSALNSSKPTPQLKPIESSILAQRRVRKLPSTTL
smiles,measurement,setting,value
COc1cc(N2CCN(CCO)CC2)ccc1Nc1ncc2c(n1)N(C1CCCC1)CCC(=O)N2C,"kinase still bound, per cent of control",RPS6KA2 KD2 (human),16%
same,"kinase still bound, per cent of control",[1],20%
same,"kinase still bound, per cent of control",STK4 (human),0%
same,"kinase still bound, per cent of control",MYLK (human),14%
same,"kinase still bound, per cent of control",DAPK2 (human),32%
same,"kinase still bound, per cent of control",INSR (human),30%
same,"kinase still bound, per cent of control",STK33 (human),7.2%
same,"kinase still bound, per cent of control",CSNK1E (human),0%
same,"kinase still bound, per cent of control",PTK2 (human),3.4%
same,"kinase still bound, per cent of control",GAK (human),1.4%
same,"kinase still bound, per cent of control",[2],28%
same,"kinase still bound, per cent of control",FER (human),24%
same,"kinase still bound, per cent of control",ALK (human),11%
same,"kinase still bound, per cent of control",[3],23%
same,"kinase still bound, per cent of control",PRKD1 (human),29%
same,"kinase still bound, per cent of control",ROS1 (human),0%
same,"kinase still bound, per cent of control",[4],24%
same,"kinase still bound, per cent of control",TTK (human),1.8%
same,"kinase still bound, per cent of control",PLK1 (human),0%
same,"kinase still bound, per cent of control",AKT3 (human),0%
same,"kinase still bound, per cent of control",PTK2B (human),13%
same,"kinase still bound, per cent of control",RPS6KA1 KD2 (human),32%
same,"kinase still bound, per cent of control",TNK1 (human),20%
same,"kinase still bound, per cent of control",DMPK (human),0%
same,"kinase still bound, per cent of control",ULK2 (human),2%
same,"kinase still bound, per cent of control",DCLK1 (human),4.2%
same,"kinase still bound, per cent of control",DAPK3 (human),28%
same,"kinase still bound, per cent of control",[5],18%
same,"kinase still bound, per cent of control",INSRR (human),32%
same,"kinase still bound, per cent of control",[6],31%
same,"kinase still bound, per cent of control",DCLK2 (human),14%
same,"kinase still bound, per cent of control",[7],31%
same,"kinase still bound, per cent of control",EGFR (human),29%
same,"kinase still bound, per cent of control",PLK4 (human),9.4%
same,"kinase still bound, per cent of control",PLK3 (human),12%
same,"kinase still bound, per cent of control",RPS6KA6 KD2 (human),20%
